Each structure is given as a SMILES string.

Assay [1] concerns NFκB in Calu-3 human bronchial epithelial cells. The assay is described as follows: TNFα-dependent NFκB-Luc reporter repression in Calu-3 cells. Type of assay: cell-based. How it is done: Anti-inflammatory activity of each of the oligomers was determined using Calu-3 human bronchial epithelial cells (American Type Culture Collection; ATCC), from repression of the inflammatory transcription factor NFκB. The Calu-3 cells of 0.5×10^6 cells/cm^2 in 12-well plates were cultured for 24 h and then, transfected with 0.6 μg luciferase (Luc)-tagged reporter plasmid construct of NFκB (pNFκB-Luc) for another 24 h using the Effectene reagents (Qiagen) under the protocol optimized in-house. On day 3, the transfected Calu-3 cells were stimulated for 6 h with 30 ng/ml human tumor necrosis factor α (TNF α; BD Biosciences) in the presence of each oligomer at 0-100 μM in culture. Then, the Calu-3 cells were lysed, after which the Luc activities were measured using 20/20n luminometer (Turner BioSystems). The cellular NFκB-Luc activity was expressed in relative light unit/mg protein, normalized by the total protein measured by the BCA assay (Pierce Biotechnology). A fold-induction of such a normalized NFκB-Luc activity relative to the transfection control was derived for treatment group comparison; this accommodated inter-transfection efficiency differences.

Assay [2] is described as follows: Chemical antioxidant assay (ABTS oxidation by metmyoglobin/hydrogen peroxide). The conditions noted are these: room temperature, absorbance at 750 nm in first 5 min; read-out: AOC50 (half maximal anti-oxidative concentration). How it is done: Anti-oxidative activity of the oligomers was determined at room temperature using the chemical antioxidant assay kit (Cayman Chemical Co.) in a 96-well plate format, in accord with the manufacturer's protocol. The kit has been validated in-house with respect to assay precision and accuracy. Oxidative reaction of ABTS (2,2′-azino-di-[3-ethylbenzthiazoline sulphonate]) to its oxidative product, ABTS•+, by metmyoglobin and 84 μM hydrogen peroxide were monitored for 20 min in the presence of each oligomer at 0-100 μM. The absorbance at 750 nm due to ABTS•+ generation was measured using the microplate reader. Initial linear rate of oxidation was assessed with the absorbance produced for the first 5 min. The half maximal anti-oxidative concentration (AOC50) values were derived, assuming the sigmoidal concentration-dependence of the initial oxidation rate in the logistic function equation.

For `O=C(O)/C=C/c1ccc(O)c(O)c1` [CA, caffeic acid], in assay [1] (by 100 μM), the “repression of NFκB-Luc activity” value is “no appreciable repression”. Moreover, the EC50 in assay [2] is 16.8 ± 1.6 µM. With `CCC(=O)O[C@]1(C(=O)SCF)[C@H](C)C[C@H]2[C@@H]3C[C@H](F)C4=CC(=O)C=C[C@]4(C)[C@@]3(F)[C@@H](O)C[C@@]21C` [FP, fluticasone propionate], the “repression of TNFα-induced NFκB-Luc activity” value in assay [1] (5 μM) came to 100%.

The values are drawn from patent publication US8613909B2, “Cinnamic acid-based oligomers and uses thereof” (Virginia Commonwealth University, priority 2008, dated 2013).
